The values below come from PubChem BioAssay (NCI).

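Cells were grown in 96-well plates and exposed to each compound for 48 hours at five concentrations; endpoints were interpolated linearly between bracketing concentrations, or set to the highest concentration if not reached. GI50 is the concentration that inhibits growth by half. TGI: concentration producing complete growth inhibition.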

In general, GI50 refers to the concentration that inhibits growth by half. As a reminder, the TGI is the concentration at which net growth stops.

Test systems include SR leukemia; PC-3 prostate; RPMI-8226 leukemia; K-562 leukemia; OVCAR-4 ovarian; HOP-92 NSCLC; RXF 393 renal; SK-OV-3 ovarian; UACC-62 melanoma; LOX IMVI melanoma.
Common to all, as to assay: DTP human tumour cell line panel, 48 h

As for `COc1ccc(/C=C2\C=C(c3ccccc3)N(CCc3ccccc3)C2=O)cc1OC`, the GI50 with SR leukemia is 11.1 µM; with PC-3 prostate, 21.1 µM; in the test on RPMI-8226 leukemia, 18.4 µM; in the test on K-562 leukemia, 23.9 µM; in the test with OVCAR-4 ovarian, 3.15 µM; in the test with HOP-92 NSCLC, 2.54 µM. Besides, the GI50 in the test on RXF 393 renal is 3.64 µM; in the test on SK-OV-3 ovarian it was 4.04 µM; in the test with UACC-62 melanoma it was 6.01 µM; in the test with LOX IMVI melanoma, 5.94 µM. The TGI with SR leukemia is 57.7 µM; in the test with PC-3 prostate, > 100 µM; in the test with RPMI-8226 leukemia, 84.9 µM; in the test with K-562 leukemia, > 100 µM; in the test on OVCAR-4 ovarian, 87 µM; with HOP-92 NSCLC, 8.17 µM. In addition, the TGI with RXF 393 renal came to 15.6 µM; in the test on SK-OV-3 ovarian, 18.8 µM; with UACC-62 melanoma, 40.9 µM; in the test on LOX IMVI melanoma, 19 µM.
On to `CC(=O)N1N=C2/C(=C/c3ccc(Cl)cc3)CC(C)CC2C1c1ccc(Cl)cc1` (stereo not given), for which the GI50 was 14.6 µM in the test with SR leukemia; 12.8 µM in the test with PC-3 prostate; 9.14 µM with RPMI-8226 leukemia; 13.8 µM in the test with K-562 leukemia; 27.9 µM in the test on OVCAR-4 ovarian; 19.5 µM with HOP-92 NSCLC. For the same compound, the GI50 is 15.3 µM with RXF 393 renal, 20.4 µM with SK-OV-3 ovarian, 21.1 µM in the test with UACC-62 melanoma and 18.1 µM in the test with LOX IMVI melanoma. For the same compound, the TGI was 53.8 µM with SR leukemia; > 100 µM in the test with PC-3 prostate; 32.6 µM in the test with RPMI-8226 leukemia; 65.8 µM in the test on K-562 leukemia; > 100 µM in the test with OVCAR-4 ovarian; 54 µM in the test with HOP-92 NSCLC. Also, the TGI was 33.9 µM with RXF 393 renal, 59.6 µM in the test on SK-OV-3 ovarian, 52.2 µM in the test with UACC-62 melanoma and 34.6 µM in the test on LOX IMVI melanoma.
Consider `CC(C)(C)c1c2c(c(C(C)(C)C)c3c1OCN(Cc1ccccc1)C3)OCN(Cc1ccccc1)C2`, for which the TGI with SR leukemia is 53.2 µM; in the test on PC-3 prostate it was 38 µM; in the test with RPMI-8226 leukemia, 44.6 µM; in the test on K-562 leukemia it was 54.5 µM; with OVCAR-4 ovarian, > 100 µM; in the test on HOP-92 NSCLC it was 28.1 µM. Moreover, the TGI in the test on RXF 393 renal was 36.2 µM; in the test on SK-OV-3 ovarian, > 100 µM; in the test on UACC-62 melanoma it was 38.7 µM; in the test with LOX IMVI melanoma, 31.5 µM.
For the compound `CN(Cc1cc(Cl)cc(Cl)c1O)Cc1c(O)ccc2ccccc12`, the TGI in the test on SR leukemia was 68.2 µM; in the test on PC-3 prostate it was 30.7 µM; in the test on RPMI-8226 leukemia it was 73.1 µM; in the test with K-562 leukemia, 61 µM; with OVCAR-4 ovarian, 38.9 µM; in the test with HOP-92 NSCLC, 36.5 µM. Moreover, the TGI stood at 33.6 µM in the test on RXF 393 renal, 36.8 µM with SK-OV-3 ovarian, 29.3 µM with UACC-62 melanoma and 32.8 µM in the test with LOX IMVI melanoma.
`Cn1cc(C2=C(c3cn(C)c4ccccc34)C(=O)NC2=O)c2ccccc21`: the GI50 in the test with SR leukemia was 0.248 µM; in the test with PC-3 prostate, 1.12 µM; in the test with RPMI-8226 leukemia it was > 8.42 µM; in the test on K-562 leukemia, 0.235 µM; in the test on OVCAR-4 ovarian it was 5.01 µM; in the test on HOP-92 NSCLC it was 1.45 µM. The GI50 with RXF 393 renal is 0.825 µM; in the test with SK-OV-3 ovarian it was 1.51 µM; with UACC-62 melanoma, 2.24 µM; with LOX IMVI melanoma, 1.8 µM. Besides, the TGI was > 25 µM in the test with SR leukemia; > 25 µM in the test on PC-3 prostate; > 25 µM in the test on RPMI-8226 leukemia; > 25 µM with K-562 leukemia; > 25 µM in the test with OVCAR-4 ovarian; > 7.23 µM with HOP-92 NSCLC. Besides, the TGI in the test on RXF 393 renal was 14.5 µM; with SK-OV-3 ovarian, > 25 µM; in the test with UACC-62 melanoma it was > 25 µM; in the test with LOX IMVI melanoma, > 25 µM.
Consider `O=c1oc2ccc(Br)cc2c(=O)n1-c1ccc(I)cc1F`, for which the GI50 with SR leukemia was 0.417 µM; in the test on PC-3 prostate, 1.13 µM; in the test with RPMI-8226 leukemia it was 0.266 µM; in the test on K-562 leukemia, 0.389 µM; with OVCAR-4 ovarian, 0.389 µM; in the test on HOP-92 NSCLC, 0.164 µM. In addition, the GI50 in the test with RXF 393 renal is 0.396 µM; in the test with SK-OV-3 ovarian, 0.271 µM; with UACC-62 melanoma it was 0.264 µM; in the test on LOX IMVI melanoma, 0.393 µM. Further, the TGI was 21.9 µM with SR leukemia; 5.86 µM in the test on PC-3 prostate; 1.16 µM in the test on RPMI-8226 leukemia; > 100 µM in the test on K-562 leukemia; 13.7 µM in the test on OVCAR-4 ovarian; 0.492 µM in the test with HOP-92 NSCLC. The TGI in the test with RXF 393 renal is 1.93 µM; in the test on SK-OV-3 ovarian, 2.13 µM; with UACC-62 melanoma it was 0.886 µM; with LOX IMVI melanoma, 2.94 µM.
